From US20070043035A1, “Novel compounds and their use in medicine: process for their preparation and pharmaceutical compositions containing them” (priority 2003, published 2007)

Columns and labels:
[1] = system: cholesterol fed Syrian Hamsters; experiment: Body weight reducing effect in cholesterol fed hamsters; assay type: in vivo, hamster; conditions: dose 3 mg/kg, oral, 15 days
Procedure: Male Syrian Hamsters are procured from NIN, Hyderabad, India. Animals are housed at DRF animal house under 12 hour light and dark cycle at 25±1° C. with free access to food and water. Animals are maintained with 1% cholesterol containing standard laboratory chow (NIN) from the day of treatment.
The test compounds can be administered orally at 1 to 30 mg/kg/day dose for 15 days. Control group animals are treated with vehicle (Mill Q water, dose 10 ml/kg/day). Body weights are measured on every 3rd day.
(§1) Formulae for Calculation: 1. Percent reduction in Blood sugar triglycerides/total cholesterol will be calculated according to the formula: [formula] OC=Zero day control group value OT=Zero day treated group value TC=Test day control group value TT=Test day treated group value 2. LDL and VLDL cholesterol levels will be calculated according to the formula: [formula] [formula]

hPPARα = molecular target: T1, hPPARα (Homo sapiens, UniProt Q07869); experiment: Determination of hPPARα activity (GAL4-LBD luciferase reporter in HEK-293 cells); assay type: cell-based; conditions: compound concentration 50 μM
T1 construct: expressed in transfected cells; host or cells: HEK-293
T1 sequence (Q07869 239-466 limits assumed): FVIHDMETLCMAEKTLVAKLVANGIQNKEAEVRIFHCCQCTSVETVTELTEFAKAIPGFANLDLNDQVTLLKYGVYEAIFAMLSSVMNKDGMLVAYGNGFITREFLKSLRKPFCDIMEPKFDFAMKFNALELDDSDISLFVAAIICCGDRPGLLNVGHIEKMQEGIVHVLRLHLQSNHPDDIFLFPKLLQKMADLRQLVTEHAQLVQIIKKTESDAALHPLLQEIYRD
Procedure: Ligand binding domain of hPPARα was fused to DNA binding domain of Yeast transcription factor Gal 4 in eucaryotic expression vector. Using superfect (Qiagen, Germany) as transfecting reagent HEK-293 cells are transfected with this plasmid and a reporter plasmid harboring the luciferase gene driven by a GAL4 specific promoter. Compound can be added at different concentrations after 42 hrs of transfection and incubated overnight. Luciferase activity as a function of compound binding/activation capacity of PPARα will be measured using Packard Luclite kit (Packard, USA) in Top Count (Ivan Sadowski, Brendan Bell, Peter Broag and Melvyn Hollis. Gene. 1992. 118: 137-141; Superfect Transfection Reagent Handbook. February 1997. Qiagen, Germany).

hPPARγ1 = molecular target: T2, hPPARγ1 (Homo sapiens, UniProt P37231); experiment: Determination of hPPARγ activity (GAL4-LBD luciferase reporter in HEK-293 cells); assay type: cell-based; conditions: compound concentration 1 μM
T2 construct: expressed in transfected cells; host or cells: HEK-293
T2 sequence (P37231 238-503 limits assumed): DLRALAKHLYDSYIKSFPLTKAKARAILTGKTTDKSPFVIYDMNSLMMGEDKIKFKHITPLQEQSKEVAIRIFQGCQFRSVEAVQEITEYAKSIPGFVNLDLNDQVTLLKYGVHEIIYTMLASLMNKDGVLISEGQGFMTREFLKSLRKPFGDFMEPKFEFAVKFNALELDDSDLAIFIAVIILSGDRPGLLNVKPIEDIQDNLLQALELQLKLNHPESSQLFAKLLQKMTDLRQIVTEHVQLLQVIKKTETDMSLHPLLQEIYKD
Procedure: Ligand binding domain of hPPARγ1 is fused to DNA binding domain of Yeast transcription factor GAL4 in eucaryotic expression vector. Using lipofectamine (Gibco BRL, USA) as transfecting reagent HEK-293 cells are transfected with this plasmid and a reporter plasmid harboring the luciferase gene driven by a GAL4 specific promoter. Compound can be added at 1 μM. concentration after 48 hrs of transfection and incubated overnight Luciferase activity as a function of drug binding/activation capacity of PPARγ1 will be measured using Packard Luclite kit (Packard, USA) in Packard Top Count (Ivan Sadowski, Brendan Bell, Peter Broag and Melvyn Hollis. Gene. 1992. 118:137-141; Guide to Eukaryotic Transfections with Cationic Lipid Reagents. Life Technologies, GIBCO BRL, USA).

C57BL/Ks-db/db mice = experiment: Efficacy in genetic models: triglyceride lowering in db/db mice; assay type: in vivo, mouse; conditions: dose 1 mg/kg, oral gavage daily for 6 days, plasma
Description: Mutation in colonies of laboratory animals and different sensitivities to dietary regimens has made the development of animal models with non-insulin dependent diabetes and hyperlipidemia associated with obesity and insulin resistance possible. Genetic models such as db/db and ob/ob (Diabetes, (1982) 31(1): 1-6) mice and zucker fa/fa rats have been developed by the various laboratories for understanding the pathophysiology of disease and testing the efficacy of new antidiabetic compounds (Diabetes, (1983) 32: 830-838; Annu. Rep. Sankyo Res. Lab. (1994). 46: 1-57). […]
The random blood sugar and triglyceride levels can be measured by collecting blood (100 μl) through orbital sinus, using heparinised capillary in tubes containing EDTA which was centrifuged to obtain plasma. The plasma glucose and triglyceride levels can be measured spectrometrically, by glucose oxidase and glycerol-3-PO4 oxidase/peroxidase enzyme (Dr. Reddy's Lab. Diagnostic Division Kits, Hyderabad, India) methods respectively.
The blood sugar and triglycerides lowering activities of the test compound are calculated according to the formula.
(§2) Formulae for Calculation: 1. Percent reduction in Blood sugar triglycerides/total cholesterol will be calculated according to the formula: [formula] […] LDL and VLDL cholesterol levels will be calculated according to the formula: [formula] […]

[2] = system: hypercholesterolemic Sprague Dawley rats; experiment: Plasma triglyceride and cholesterol lowering activity in hypercholesterolemic rat models; assay type: in vivo; conditions: dose 1 mg/kg, oral, 3 days
Procedure: Male Sprague Dawley rats (NIN stock) were bred in DRF animal house. Animals were maintained under 12 hour light and dark cycle at 25±1° C. Rats of 180-200 gram body weight range were used for the experiment. Animals are made hypercholesterolemic by feeding 2% cholesterol and 1% sodium cholate mixed with standard laboratory chow [National Institute of Nutrition (NE), Hyderabad, India] for 6 days. Throughout the experimental period the animals were maintained on the same diet (Petit, D., Bonnefis, M. T., Rey, C and Infante, P Effects of ciprofibrate on liver lipids and lipoprotein synthesis in normo- and hyperlipidemic rats. Atherosclerosis. 1988. 74: 215-225).
The test compounds can be administered orally at a dose 0.1 to 30 mg/kg/day for 3 days. Control group was treated with vehicle alone (0.25% Carboxymethylcellulose; dose 10 ml/kg).
The blood samples can be collected in fed state 1 hour after drug administration on 0 and 3 day of compound treatment The blood can be collected from the retro-orbital sinus through heparinised capillary in EDTA containing tubes. After centrifugation, plasma sample will be separated for total cholesterol, HDL and triglyceride estimations. Measurement of plasma triglyceride, total cholesterol and HDL are were done using commercial kits (Dr. Reddy's Laboratory, Diagnostic Division, India). LDL and VLDL cholesterol can be calculated from the data obtained for total cholesterol, HDL and triglyceride. The reduction of various parameters examined are calculated according to the formula.
as §1

Swiss albino mice = experiment: Plasma triglyceride and total cholesterol lowering activity in Swiss albino mice; assay type: in vivo, mouse; conditions: dose 3 mg/kg, oral, 6 days
Procedure: Male Swiss albino mice (SAM) were obtained from NIN and housed in DRF animal house. All these animals are maintained under 12 hour light and dark cycle at 25±1° C. Animals are given standard laboratory chow (NIN, Hyderabad, India) and water, ad libitum. SAM of 20-25 g body weight range and Guinea pigs of 500-700 g body weight range are used (Oliver, P., Plancke, M. O., Marzin, D., Clavey, V., Sauzieres, J and Fruchart, J. C. Effects of fenofibrate, gemfibrozil and nicotinic acid on plasma lipoprotein levels in normal and hyperlipidemic mice. Atherosclerosis. 1988. 70: 107-114).
The test compounds can be administered orally to Swiss albino mice at 0.3 to 30 mg/kg/day dose for 6 days. Control mice are treated with vehicle (0.25% Carboxymethylcellulose; dose 10 ml/kg). The test compounds are administered orally to Guinea pigs at 0.3 to 30 mg/kg/day dose for 6 days. Control animals are treated with vehicle (0.25% Carboxymethylcellulose; dose 5 ml/kg).
The blood samples can be collected in fed state 1 hour after drug administration on 0 and 6 day of treatment. […]
as §2

SMILES	melting point [°C]	also measured
CCOC(=O)C(C)(C)Oc1ccc(OC/C=C(\C)c2ccc3c(c2)Cc2ccccc2-3)cc1 [Example 7]	155 to 158	–
CCOC(=O)C1(Oc2ccc(OC/C=C(\C)c3ccc(-c4ccccc4)cc3)cc2)CCCC1 [Example 23]	112 to 114	–
C/C(=C\COc1ccc(OC(C)(C)C(=O)O)cc1)c1ccc(-c2ccccc2)cc1 [Example 25, 2-[4-(3-Biphenyl-4-yl-but-2-enyloxy)phenoxy]-2-methyl propanoic acid]	–	Reduction in Body weight (%) [1]: 22%; Reduction in Total Cholesterol (%) [1]: 55%; Reduction in Triglyceride (%) [1]: 45%
CC(C)C(Sc1ccc(OCCCc2ccc(OS(C)(=O)=O)cc2)cc1)C(=O)O (centres unmarked) [Example 28]	115 to 118	–
CC(C)(Oc1ccc(OCCc2ccc(-c3ccccc3)cc2)cc1)C(=O)O [Example 30]	138 to 140	–
C/C(=C\COc1ccc(OC(C)(C)C(=O)O)cc1)c1ccc2c(c1)Cc1ccccc1-2 [Example 31]	155 to 158	–
CCN1c2ccccc2Oc2ccc(/C(C)=C/COc3ccc(OC(C)(C)C(=O)O)cc3)cc21 [Example 32]	114 to 116	–
C/C(=C\CNc1ccc(OC(C)(C)C(=O)O)cc1)c1ccc(-c2ccccc2)cc1 [Example 35]	184 to 188	–
CCC(C)(Oc1ccc(OC/C=C(\C)c2ccc(-c3ccc(F)cc3)cc2)cc1)C(=O)O (centres unmarked) [Example 36]	122 to 125	–
CCC(C)(Oc1ccc(OC/C=C(\C)c2ccc(-c3ccccc3)cc2)cc1)C(=O)O (centres unmarked) [Example 37]	114 to 117	PPARα (hPPARα): 12.2; PPARγ (hPPARγ1): 2.8; Triglyceride Lowering (%) (C57BL/Ks-db/db mice): 52%; Reduction in Low Density Lipoprotien (%) ([2]; LDL calculated from total cholesterol, HDL and triglyceride): 64%; Increase in High Density Lipoprotien (%) ([2]; plasma): 70%; Reduction in Total Cholesterol (%) ([2]; plasma): 60%; Triglyceride Lowering (%) ([2]; plasma): 55%; Triglyceride Lowering (%) (Swiss albino mice): 71%
C/C(=C\COc1ccc(OC(C)(C)C(=O)O)cc1)c1ccc(-c2cc(Cl)cc(Cl)c2)cc1 [Example 38]	52 to 54	–
C/C(=C\COc1ccc(OC(C)(C)C(=O)O)cc1)c1ccc(-c2ccc(C(F)(F)F)cc2)cc1 [Example 40]	150 to 154	PPARα (hPPARα): 12.6; PPARγ (hPPARγ1): 1.3
C/C(=C\COc1ccc(SC(C)(C)C(=O)O)cc1)c1ccc(-c2ccccc2)cc1 [Example 41]	162 to 165	–
C/C(=C\COc1ccc(SC(C)(C)C(=O)O)cc1)c1ccc(-c2ccc(C(F)(F)F)cc2)cc1 [Example 42]	142 to 146	–
CC(C)(Oc1ccc(OC/C=C/c2ccc(-c3ccccc3)cc2)cc1)C(=O)O [Example 43]	172 to 174	–
C/C(=C\COc1ccc(OC(C(=O)O)C(C)C)cc1)c1ccc(-c2ccccc2)cc1 (centres unmarked) [Example 44]	136 to 140	–
CC(C)(Oc1ccc(OC/C=C/c2ccc(OS(C)(=O)=O)cc2)cc1)C(=O)O [Example 45]	112 to 114	–
C/C(=C\COc1ccc(OC2(C(=O)O)CCCC2)cc1)c1ccc(-c2ccccc2)cc1 [Example 47]	142 to 144	–
CC(C)(Oc1ccc(OCCCc2ccc(OS(C)(=O)=O)cc2)cc1)C(=O)O [Example 48]	64 to 66	–
CC(CCOc1ccc(OC(C)(C)C(=O)O)cc1)c1ccc(-c2ccccc2)cc1 (centres unmarked) [Example 49]	120 to 122	–
